For the experiment, the target named is T1, recombinant glucosyltransferase domain of C. difficile Toxin B/TcdB (Clostridioides difficile, UniProt P18177).
T1 construct: 6-His (C); purchased R&D Systems 6246-GT
As to the kind of experiment: biochemical.

The structures appear in SMILES notation. A value given as a limit tells only on which side of the number the result lay.

T1 sequence (P18177 1-543): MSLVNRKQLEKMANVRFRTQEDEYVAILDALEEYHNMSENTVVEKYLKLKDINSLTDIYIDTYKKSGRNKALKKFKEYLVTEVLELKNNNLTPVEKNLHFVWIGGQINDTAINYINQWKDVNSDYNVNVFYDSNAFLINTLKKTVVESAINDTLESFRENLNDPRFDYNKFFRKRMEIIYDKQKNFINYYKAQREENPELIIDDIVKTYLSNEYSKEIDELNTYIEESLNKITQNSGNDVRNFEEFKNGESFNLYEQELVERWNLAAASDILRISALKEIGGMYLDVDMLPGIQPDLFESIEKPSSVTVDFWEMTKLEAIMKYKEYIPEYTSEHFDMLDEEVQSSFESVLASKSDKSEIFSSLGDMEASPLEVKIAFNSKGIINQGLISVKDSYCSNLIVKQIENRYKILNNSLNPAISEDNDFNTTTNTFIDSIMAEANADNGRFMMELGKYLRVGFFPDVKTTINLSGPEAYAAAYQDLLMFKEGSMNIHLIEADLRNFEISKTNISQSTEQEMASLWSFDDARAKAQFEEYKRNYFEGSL

As usually defined, the IC50 is the concentration that gives 50% inhibition. In the case of `O=C(NS(=O)(=O)c1ccccc1)c1ccc(CN2C(=O)c3ccc(Cl)cc3NC(=O)[C@H]2Cc2cccnc2)cc1` [Example 15a, (R)-4-((8-Chloro-2,5-dioxo-3-(pyridin-3-ylmethyl)-2,3-dihydro-1H-benzo[e][1,4]diazepin-4(5H)-yl)methyl)-N-(phenylsulfonyl)benzamide], the IC50 was 1000 to 10000 nM.

With `O=C(Nc1ccccn1)c1ccc(CN2C(=O)c3ccc(Br)cc3NC(=O)[C@H]2Cc2cccnc2)cc1` [Example 4bd, (R)-4-((8-bromo-2,5-dioxo-3-(pyridin-3-ylmethyl)-2,3-dihydro-1H-benzo[e][1,4]diazepin-4(5H)-yl)methyl)-N-(pyridin-2-yl)benzamide], the IC50 was less than 100 nM.

With `COc1cnc(NC(=O)[C@H]2CC[C@H](CN3C(=O)c4ccc(Cl)cc4NC(=O)[C@H]3Cc3ccccn3)CC2)cn1` [Example 4ce, (1R,4r)-4-(((R)-8-chloro-2,5-dioxo-3-(pyridin-2-ylmethyl)-2,3-dihydro-1H-benzo[e][1,4]diazepin-4(5H)-yl)methyl)-N-(5-methoxypyrazin-2-yl)cyclohexanecarboxamide], the IC50 is 100 to 999 nM.

Take `Cc1ccc(NC(=O)c2ccc(CN3C(=O)c4ccc(Cl)cc4NC(=O)[C@H]3Cc3ccccn3)cc2F)nc1` [Example 6d, (R)-4-((8-chloro-2,5-dioxo-3-(pyridin-2-ylmethyl)-2,3-dihydro-1H-benzo[e][1,4]diazepin-4(5H)-yl)methyl)-2-fluoro-N-(5-methylpyridin-2-yl)benzamide]: the IC50 was less than 100 nM.

For `O=C1Nc2cc(Cl)ccc2C(=O)N(Cc2ccc(-n3cnc4cccnc4c3=O)cc2)[C@@H]1Cc1ccccn1` [Example 46a, (R)-8-Chloro-4-(4-(4-oxopyrido[3,2-c]pyrimidin-3(4H)-yl)benzyl)-3-(pyridin-2-ylmethyl)-3,4-dihydro-1H-benzo[e][1,4]diazepine-2,5-dione], the IC50 was less than 100 nM.

As to `O=C(Nc1ccccn1)c1ccc(CN2Cc3ccc(Cl)cc3NC(=O)[C@H]2Cc2ccccn2)cc1` [Example 20a, (R)-4-((8-Chloro-2-oxo-3-(pyridin-2-ylmethyl)-2,3-dihydro-1H-benzo[e][1,4]diazepin-4(5H)-yl)methyl)-N-(pyridin-2-yl)benzamide], the 50% inhibitory concentration (IC50) lay within 1000 to 10000 nM.

As for `Cc1ccnc(C(=O)c2ccc(CN3C(=O)c4ccc(Cl)cc4NC(=O)[C@H]3Cc3ccccn3)cc2)c1` [Example 11d, (R)-8-chloro-4-(4-(4-methylpicolinoyl)benzyl)-3-(pyridin-2-ylmethyl)-3,4-dihydro-1H-benzo[e][1,4]diazepine-2,5-dione], the IC50 was less than 100 nM.

Turning to `O=C(Nc1cccc(CN2C(=O)c3ccc(Cl)cc3NC(=O)[C@H]2Cc2ccccn2)c1)c1ccccn1` [Example 28a, (R)—N-(3-((8-Chloro-2,5-dioxo-3-(pyridin-2-ylmethyl)-2,3-dihydro-1H-benzo[e][1,4]diazepin-4(5H)-yl)methyl)phenyl)picolinamide], the IC50 was less than 100 nM.

Regarding `Cc1ccc(NC(=O)c2ccc(CN3C(=O)c4ccc(NS(C)(=O)=O)cc4NC(=O)[C@H]3C)cc2)nc1` [Example 39a, (R)-4-((3-Methyl-8-(methylsulfonamido)-2,5-dioxo-2,3-dihydro-1H-benzo[e][1,4]diazepin-4(5H)-yl)methyl)-N-(5-methylpyridin-2-yl)benzamide], the IC50 fell in the range of 10000 to 35000 nM.

Consider `CS(=O)(=O)Nc1ccc(CN2C(=O)c3ccc(Cl)cc3NC(=O)[C@H]2Cc2ccccn2)cc1` [Example 30a, (R)—N-(4-((8-Chloro-2,5-dioxo-3-(pyridin-2-ylmethyl)-2,3-dihydro-1H-benzo[e][1,4]diazepin-4(5H)-yl)methyl)phenyl)methanesulfonamide], for which the IC50 lay within 10000 to 35000 nM.

Take `Cc1cccc(C(=O)Nc2ccc(CN3C(=O)c4ccc(Cl)cc4NC(=O)[C@H]3Cc3ccccn3)cc2)n1` [Example 26d]: the IC50 was in the range of 1000 to 10000 nM.

Take `O=C(O)c1ccc(CN2C(=O)c3ccc(Cl)cc3NC(=O)[C@H]2Cc2ccccc2F)cc1` [Example 3j]: the IC50 was 10000 to 35000 nM.

As for `O=C(O)c1ccc(CN2C(=O)c3ccc(Cl)cc3NC(=O)[C@@H]2Cc2ccccn2)cc1` [Example 1f], the IC50 was in the range of 100 to 999 nM.

With `O=C(O)c1ccc(CN2C(=O)c3ccc(Br)cc3NC(=O)[C@H]2Cc2cccnc2)cc1` [Example 1g], the IC50 lay in the range of 1000 to 10000 nM.

Regarding `COc1ccc2c(c1)NC(=O)[C@@H](Cc1ccc(Cl)c(Cl)c1)N(Cc1ccc(C(=O)Nc3ccccn3)cc1)C2=O` [Example 4l, (R)-4-((3-(3,4-dichlorobenzyl)-8-methoxy-2,5-dioxo-2,3-dihydro-1H-benzo[e][1,4]diazepin-4(5H)-yl)methyl)-N-(pyridin-2-yl)benzamide], the IC50 was less than 100 nM.

As for `O=C(O)c1ccc(CN2C(=O)c3ccc(Cl)cc3NC(=O)[C@H]2Cc2cccc(Cl)c2)cc1` [Example 3f], the IC50 lay within 1000 to 10000 nM.

Consider `O=C(O)c1ccc(CN2C(=O)c3ccc(Cl)cc3NC(=O)[C@H]2Cc2ccccn2)cc1NC(=O)C1CCOCC1` [Example 22m], for which the IC50 was 100 to 999 nM.

Turning to `O=C1Nc2cc(Cl)ccc2C(=O)N(Cc2ccc(C(=NO)c3ccccn3)cc2)[C@@H]1Cc1ccccn1` (mixture of isomers) [Example 52a, (R)-8-Chloro-4-(4-((hydroxyimino)(pyridin-2-yl)methyl)benzyl)-3-(pyridin-2-ylmethyl)-3,4-dihydro-1H-benzo[e][1,4]diazepine-2,5-dione], the IC50 lay in the range of 100 to 999 nM.

In the case of `NC(=O)c1ccc(CN2C(=O)c3ccc(Cl)cc3NC(=O)[C@H]2Cc2cccnc2)cc1` [Example 13c, (R)-4-((8-chloro-2,5-dioxo-3-(pyridin-3-ylmethyl)-2,3-dihydro-1H-benzo[e][1,4]diazepin-4(5H)-yl)methyl)benzamide], the IC50 lay within 1000 to 10000 nM.

As to `CC(C)C[C@@H]1C(=O)Nc2cc(Cl)ccc2C(=O)N1Cc1ccc(C(=O)Nc2ccccn2)cc1` [Example 35k], the IC50 lay in the range of 10000 to 35000 nM.

Take `CC1(C)CN(C(=O)c2ccc(CN3C(=O)c4ccc(Cl)cc4NC(=O)[C@H]3Cc3ccccn3)cc2Cl)c2ncc(C(F)(F)F)cc21` [Example 5aw, (R)-8-chloro-4-(3-chloro-4-(3,3-dimethyl-5-(trifluoromethyl)-2,3-dihydro-1H-pyrrolo[2,3-b]pyridine-1-carbonyl)benzyl)-3-(pyridin-2-ylmethyl)-3,4-dihydro-1H-benzo[e][1,4]diazepine-2,5-dione]: the IC50 is less than 100 nM.

On to `COCCC(=O)Nc1ccc2c(c1)NC(=O)[C@@H](C)N(Cc1ccc(C(=O)Nc3ccc(C)cn3)cc1)C2=O` [Example 18a, (R)-4-((8-(3-Methoxypropanamido)-3-methyl-2,5-dioxo-2,3-dihydro-1H-benzo[e][1,4]diazepin-4(5H)-yl)methyl)-N-(5-methylpyridin-2-yl)benzamide], for which the IC50 fell in the range of 1000 to 10000 nM.

With `CC(=O)Nc1ccc2c(c1)NC(=O)[C@@H](C)N(Cc1ccc(C(=O)Nc3ccc(C)cn3)cc1)C2=O` [Example 17a, (R)-4-((8-Acetamido-3-methyl-2,5-dioxo-2,3-dihydro-1H-benzo[e][1,4]diazepin-4(5H)-yl)methyl)-N-(5-methylpyridin-2-yl)benzamide], the IC50 was 100 to 999 nM.

Take `CC(=O)Nc1cc(CN2C(=O)c3ccc(Cl)cc3NC(=O)[C@H]2Cc2ccccn2)ccc1C(=O)O` [Example 22a, (R)-2-Acetamido-4-((8-chloro-2,5-dioxo-3-(pyridin-2-ylmethyl)-2,3-dihydro-1H-benzo[e][1,4]diazepin-4(5H)-yl)methyl)benzoic Acid]: the IC50 was 100 to 999 nM.

For the compound `CC(C)c1ccc(NC(=O)c2ccc(CN3C(=O)c4ccc(Cl)cc4NC(=O)[C@H]3Cc3cccnc3)cc2)nc1` [Example 4at, (R)-4-((8-chloro-2,5-dioxo-3-(pyridin-3-ylmethyl)-2,3-dihydro-1H-benzo[e][1,4]diazepin-4(5H)-yl)methyl)-N-(5-isopropylpyridin-2-yl)benzamide], the IC50 was less than 100 nM.

For `Cc1nc2cccnc2c(=O)n1-c1ccc(CN2C(=O)c3ccc(Cl)cc3NC(=O)[C@H]2Cc2ccccn2)cc1` [Example 47a, (R)-8-Chloro-4-(4-(2-methyl-4-oxopyrido[3,2-d]pyrimidin-3(4H)-yl)benzyl)-3-(pyridin-2-ylmethyl)-3,4-dihydro-1H-benzo[e][1,4]diazepine-2,5-dione], the IC50 is less than 100 nM.

Regarding `Cc1nnc(NC(=O)c2ccc(CN3C(=O)c4ccc(Cl)cc4NC(=O)[C@H]3Cc3ccccn3)cc2)[nH]1` [Example 4bj, (R)-4-((8-chloro-2,5-dioxo-3-(pyridin-2-ylmethyl)-2,3-dihydro-1H-benzo[e][1,4]diazepin-4(5H)-yl)methyl)-N-(5-methyl-4H-1,2,4-triazol-3-yl)benzamide], the IC50 lay within 1000 to 10000 nM.

As to `COc1ccc2c(c1)NC(=O)[C@@H](Cc1cccnc1)N(Cc1ccc(C(=O)Nc3ccccn3)cc1)C2=O` [Example 4p, (R)-4-((8-methoxy-2,5-dioxo-3-(pyridin-3-ylmethyl)-2,3-dihydro-1H-benzo[e][1,4]diazepin-4(5H)-yl)methyl)-N-(pyridin-2-yl)benzamide], the IC50 was less than 100 nM.

`O=C1CN(Cc2ccc(C(=O)Nc3ccccn3)cc2)C(=O)c2ccc(Cl)cc2N1` [Example 4am, 4-((8-chloro-2,5-dioxo-2,3-dihydro-1H-benzo[e][1,4]diazepin-4(5H)-yl)methyl)-N-(pyridin-2-yl)benzamide]: the IC50 fell in the range of 100 to 999 nM.

Regarding `O=C(N[C@H]1CC[C@H](CN2C(=O)c3ccc(Cl)cc3NC(=O)[C@H]2Cc2ccccn2)CC1)c1ccccn1` [Example 26j], the concentration for half-maximal inhibition (IC50) was in the range of 100 to 999 nM.

`C[C@@H]1C(=O)Nc2cc(Cl)ccc2C(=O)N1Cc1ccc(C(=O)N2CCc3cccnc32)cc1` [Example 4y, (R)-8-chloro-4-(4-(2,3-dihydro-1H-pyrrolo[2,3-b]pyridine-1-carbonyl)benzyl)-3-methyl-3,4-dihydro-1H-benzo[e][1,4]diazepine-2,5-dione]: the IC50 was less than 100 nM.

With `O=C1Nc2cc(Cl)ccc2C(=O)N(Cc2ccc(C(=O)N3CCCC3=O)cc2)[C@@H]1Cc1ccccn1` [Example 12b, (R)-8-chloro-4-(4-(2-oxopyrrolidine-1-carbonyl)benzyl)-3-(pyridin-2-ylmethyl)-3,4-dihydro-1H-benzo[e][1,4]diazepine-2,5-dione], the IC50 was in the range of 1000 to 10000 nM.

The values are drawn from patent publication US10669242B2 (priority 2016, dated 2020).
